Results taken from patent US20180319810A1, “SUBSTITUTED BRIDGED UREA ANALOGS AS SIRTUIN MODULATORS” (GlaxoSmithKline Intellectual Property (No.2) Limited, priority 2014, published 2018).

What follows are compounds tested against T1, SIRT1 (Homo sapiens, UniProt Q96EB6) (assay: Trp mass spectrometry assay of SIRT1 activation). Details: Trp peptide Ac-R-H-K-K(Ac)-W-NH2 0.5 μM, 120 μM βNAD+, 10 nM SIRT1, 25 min, 25° C.
T1 sequence (Q96EB6 1-747): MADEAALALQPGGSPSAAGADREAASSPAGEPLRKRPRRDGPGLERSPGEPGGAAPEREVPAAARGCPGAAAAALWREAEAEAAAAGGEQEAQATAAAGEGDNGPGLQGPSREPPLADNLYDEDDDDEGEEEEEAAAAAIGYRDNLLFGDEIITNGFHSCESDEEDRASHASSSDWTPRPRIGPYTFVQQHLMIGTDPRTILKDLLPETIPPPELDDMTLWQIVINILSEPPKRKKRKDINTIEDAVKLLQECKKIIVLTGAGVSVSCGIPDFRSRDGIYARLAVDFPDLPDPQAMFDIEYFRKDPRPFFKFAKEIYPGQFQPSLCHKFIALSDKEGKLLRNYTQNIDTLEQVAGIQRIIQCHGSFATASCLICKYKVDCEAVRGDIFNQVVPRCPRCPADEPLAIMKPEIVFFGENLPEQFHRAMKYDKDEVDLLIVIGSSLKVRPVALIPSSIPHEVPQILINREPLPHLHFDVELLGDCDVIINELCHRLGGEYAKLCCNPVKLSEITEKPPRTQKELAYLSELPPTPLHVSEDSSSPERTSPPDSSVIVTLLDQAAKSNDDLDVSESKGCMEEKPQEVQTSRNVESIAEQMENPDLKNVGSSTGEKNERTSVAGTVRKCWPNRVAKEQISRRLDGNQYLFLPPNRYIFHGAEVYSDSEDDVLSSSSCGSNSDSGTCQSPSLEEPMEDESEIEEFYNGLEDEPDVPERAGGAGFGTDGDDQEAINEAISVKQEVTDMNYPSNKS
Type: biochemical
With `Cc1cc(-c2ncc3c(n2)N(C(=O)Nc2cccnc2)[C@H]2CCN3C2)ccn1` [Example 6, (8S)-2-(2-methylpyridin-4-yl)-N-(pyridin-3-yl)-7,8-dihydro-5,8-methano pyrimido[4,5-b][1,4]diazepine-9(6H)-carboxamide] the “TRP Activity (EC1.5, concentration of compound required to increase SIRT1 activity by 50% over control)” value was “B (EC1.5 1-25 μM)” and the “TRP MAX RESP (percent maximum fold activation relative to control)” value was “A (Fold activation ≥150%)”.
`O=C(NCC(F)(F)F)c1ncc2c(n1)N(C(=O)Nc1ccccn1)[C@H]1CCN2C1` [Example 58, (8S)—N9-(pyridin-2-yl)-N2-(2,2,2-trifluoroethyl)-7,8-dihydro-5,8-methano pyrimido[4,5-b][1,4]diazepine-2,9(6H)-dicarboxamide] was tested, and the “TRP Activity (EC1.5, concentration of compound required to increase SIRT1 activity by 50% over control)” value was “B (EC1.5 1-25 μM)” and the “TRP MAX RESP (percent maximum fold activation relative to control)” value was “A (Fold activation ≥150%)”.
With `O=C(Nc1cnnc(OC[C@@H](O)CO)c1)N1c2nc(-c3cccc(C(F)(F)F)c3)ncc2N2CCC[C@H]1C2` [Example 108, (9S)—N-(6-((S)-2,3-dihydroxypropoxy)pyridazin-4-yl)-2-(3-(trifluoromethyl)phenyl)-8,9-dihydro-6H-5,9-methanopyrimido[4,5-b][1,4]diazocine-10(7H)-carboxamide] the “TRP Activity (EC1.5, concentration of compound required to increase SIRT1 activity by 50% over control)” value was “A (EC1.5<1 μM)” and the “TRP MAX RESP (percent maximum fold activation relative to control)” value was “A (Fold activation ≥150%)”.
`C[C@@H](NC(=O)c1ncc2c(n1)N(C(=O)Nc1ccc(OC[C@@H](O)CO)cn1)[C@H]1CCCN2C1)C(F)(F)F` [Example 119, (9S)—N10-(5-((S)-2,3-dihydroxypropoxy)pyridin-2-yl)-N2-((R)-1,1,1-trifluoropropan-2-yl)-8,9-dihydro-6H-5,9-methanopyrimido[4,5-b][1,4]diazocine-2,10(7H)-dicarboxamide] was tested, and the “TRP Activity (EC1.5, concentration of compound required to increase SIRT1 activity by 50% over control)” value was “A (EC1.5<1 μM)” and the “TRP MAX RESP (percent maximum fold activation relative to control)” value was “A (Fold activation ≥150%)”.
In the case of `O=C(Nc1cc(F)cc(-c2cccnc2)c1)N1c2nc(-c3cccc(C(F)(F)F)c3)ncc2N2CC[C@H]1C2` [Example 27, (8S)—N-(3-fluoro-5-(pyridin-3-yl)phenyl)-2-(3-(trifluoromethyl)phenyl)-7,8-dihydro-5,8-methanopyrimido[4,5-b][1,4]diazepine-9(6H)-carboxamide], the “TRP Activity (EC1.5, concentration of compound required to increase SIRT1 activity by 50% over control)” value was “A (EC1.5<1 μM)” and the “TRP MAX RESP (percent maximum fold activation relative to control)” value was “A (Fold activation ≥150%)”.
With `O=C(Nc1cnc(OC[C@H](O)CO)nc1)N1c2nc(-c3cccc(C(F)(F)F)c3)ncc2N2CC[C@H]1C2` [Example 49, (8S)—N-(2-((R)-2,3-dihydroxypropoxy)pyrimidin-5-yl)-2-(3-(trifluoromethyl)phenyl)-7,8-dihydro-5,8-methanopyrimido[4,5-b][1,4]diazepine-9(6H)-carboxamide] the “TRP Activity (EC1.5, concentration of compound required to increase SIRT1 activity by 50% over control)” value was “B (EC1.5 1-25 μM)” and the “TRP MAX RESP (percent maximum fold activation relative to control)” value was “A (Fold activation ≥150%)”.
With `O=C(Nc1ccnc(OC[C@H](O)CO)n1)N1c2nc(-c3cccc(C(F)(F)F)c3)ncc2N2CC[C@H]1C2` [Example 28, (8S)—N-(2-((R)-2,3-dihydroxypropoxy)pyrimidin-4-yl)-2-(3-(trifluoromethyl)phenyl)-7,8-dihydro-5,8-methanopyrimido[4,5-b][1,4]diazepine-9(6H)-carboxamide] the “TRP Activity (EC1.5, concentration of compound required to increase SIRT1 activity by 50% over control)” value was “B (EC1.5 1-25 μM)” and the “TRP MAX RESP (percent maximum fold activation relative to control)” value was “A (Fold activation ≥150%)”.
In the case of `O=C(NC1CCCC1)N1c2nc(-c3cccc(C(F)(F)F)c3)ncc2N2CC[C@H]1C2` [Example 52, (8S)—N-cyclopentyl-2-(3-(trifluoromethyl)phenyl)-7,8-dihydro-5,8-methanopyrimido[4,5-b][1,4]diazepine-9(6H)-carboxamide], the “TRP Activity (EC1.5, concentration of compound required to increase SIRT1 activity by 50% over control)” value was “B (EC1.5 1-25 μM)” and the “TRP MAX RESP (percent maximum fold activation relative to control)” value was “A (Fold activation ≥150%)”.
`Cc1nc(-c2cccc(C(F)(F)F)c2)nc2c1N1CC[C@@H](C1)N2C(=O)Nc1ccc(OC[C@H](O)CO)cn1` [Example 48, (8S)—N-(5-((R)-2,3-dihydroxypropoxy)pyridin-2-yl)-4-methyl-2-(3-(trifluoromethyl)phenyl)-7,8-dihydro-5,8-methanopyrimido[4,5-b][1,4]diazepine-9(6H)-carboxamide] was tested, and the “TRP Activity (EC1.5, concentration of compound required to increase SIRT1 activity by 50% over control)” value was “B (EC1.5 1-25 μM)” and the “TRP MAX RESP (percent maximum fold activation relative to control)” value was “A (Fold activation ≥150%)”.
With `Cc1nc(-c2cccc(C(F)(F)F)c2)nc2c1N1CCC[C@@H](C1)N2C(=O)Nc1cncc(OC[C@H](O)CO)c1` [Example 107, (9S)—N-(5-((R)-2,3-dihydroxypropoxy)pyridin-3-yl)-4-methyl-2-(3-(trifluoromethyl)phenyl)-8,9-dihydro-6H-5,9-methanopyrimido[4,5-b][1,4]diazocine-10(7H)-carboxamide] the “TRP Activity (EC1.5, concentration of compound required to increase SIRT1 activity by 50% over control)” value was “A (EC1.5<1 μM)” and the “TRP MAX RESP (percent maximum fold activation relative to control)” value was “A (Fold activation ≥150%)”.
For `Cc1ccc2c(NC(=O)N3c4nc(C(=O)NC(CO)C(F)(F)F)ncc4N4CCC[C@H]3C4)n[nH]c2n1` (single isomer, unassigned) [Example 68], the “TRP Activity (EC1.5, concentration of compound required to increase SIRT1 activity by 50% over control)” value was “B (EC1.5 1-25 μM)” and the “TRP MAX RESP (percent maximum fold activation relative to control)” value was “A (Fold activation ≥150%)”.
For `O=C(Nc1ncc(OC[C@@H](O)CO)cn1)N1c2nc(-c3cccc(C(F)(F)F)c3)ncc2N2CCC[C@H]1C2` [Example 93, (9S)—N-(5-((S)-2,3-dihydroxypropoxy)pyrimidin-2-yl)-2-(3-(trifluoromethyl)phenyl)-8,9-dihydro-6H-5,9-methanopyrimido[4,5-b][1,4]diazocine-10(7H)-carboxamide], the “TRP Activity (EC1.5, concentration of compound required to increase SIRT1 activity by 50% over control)” value was “B (EC1.5 1-25 μM)” and the “TRP MAX RESP (percent maximum fold activation relative to control)” value was “A (Fold activation ≥150%)”.
With `C[C@@H](NC(=O)c1ncc2c(n1)N(C(=O)Nc1cc(OC[C@H](O)CO)ccn1)[C@H]1CCCN2C1)C(F)(F)F` [Example 64, (9S)—N10-(4-((R)-2,3-dihydroxypropoxy)pyridin-2-yl)-N2-((R)-1,1,1-trifluoropropan-2-yl)-8,9-dihydro-6H-5,9-methanopyrimido[4,5-b][1,4]diazocine-2,10(7H)-dicarboxamide] the “TRP Activity (EC1.5, concentration of compound required to increase SIRT1 activity by 50% over control)” value was “A (EC1.5<1 μM)” and the “TRP MAX RESP (percent maximum fold activation relative to control)” value was “A (Fold activation ≥150%)”.
With `O=C(Nc1ccnc(O[C@@H]2CCOC2)n1)N1c2nc(-c3cccc(C(F)(F)F)c3)ncc2N2CC[C@H]1C2` [Example 14, (8S)—N-(2-(((R)-tetrahydrofuran-3-yl)oxy)pyrimidin-4-yl)-2-(3-(trifluoromethyl)phenyl)-7,8-dihydro-5,8-methanopyrimido[4,5-b][1,4]diazepine-9(6H)-carboxamide] the “TRP Activity (EC1.5, concentration of compound required to increase SIRT1 activity by 50% over control)” value was “B (EC1.5 1-25 μM)” and the “TRP MAX RESP (percent maximum fold activation relative to control)” value was “A (Fold activation ≥150%)”.
